Reference: patent publication US20120035206A1, “PREPARATION AND APPLICATION OF NOVEL ANTIBACTERIAL AND ANTICANCER COMPOUNDS AND THEIR DERIVATIVES” (priority 2009, published 2012)
Converted amounts (≈) assume the structure as drawn.

What was measured:
Type in all cases: cell-based
C. albicans = test: In vitro antibacterial (antifungal) test, two-fold dilution MIC; conditions: Candida albicans, read-out: MIC C. albicas
Protocol: (§1) In vitro antibacterial experiments of 25 compounds as anti-bacterial and anti-cancer compounds in the patent were tested using 14 kinds of bacteria. Tested bacteria: C. albicans, C. tropicalis, C. neoformans, E. floccosum, M. gypseum, A. niger, S. schenekn, C. parapsilosis, C. glabrata, C. Krusei, Trichoderma, Gibberella, Setrosphaeria turcica, Fusarium Oxysporum Vasinfectum. (Bacteria were from the Dermatology Hospital of Chinese Academy of Medical Sciences, Nanjing, China.)
(§2) The Preparation of tested Bacteria solution was following: incubated Bacteria were added to 5 ml physiological saline, and then they were mashed and placed with ultrasound. The solution was fully mixed, and insoluble substances were removed. The treated solution was called the original bacterium solution. In the test, the bacteria concentration in the original bacterium solution was adjusted to […].
(§3) Tested Methods: the tested compounds were dissolved in dimethyl sulfoxide. and the solution was diluted with sterile distilled water. And the distilled solution was added to sterilized RPMI 1640 medium. The concentration of the compounds were adjusted to 256, 128, 64, 32, 16, 8, 4, 2, 1, 0.5, 0.25, 0.125 ug*ml-1. Then the adjusted solutions were inoculated with tested bacteria, and the tested systems were placed in the constant temperature oven to culture for 2-7 days. The concentration at which there was no growing of fungi was taken as the minimum inhibitory concentration (MIC).

C. Krusei = test: as above; conditions: Pichia kudriavzevii, RPMI 1640, culture 2-7 days
Protocol: as §1, §2, §3

E. floccosum = test: as above; conditions: Epidermophyton floccosum, RPMI 1640, culture 2-7 days
Protocol: as §1, §2, §3

C. glabrata = test: as above; conditions: Nakaseomyces glabratus, RPMI 1640, culture 2-7 days
Protocol: as §1, §2, §3

M. gypseum = test: as above; conditions: Nannizzia gypsea, RPMI 1640, culture 2-7 days
Protocol: as §1, §2, §3

C. tropicalis = test: as above; conditions: Candida tropicalis, RPMI 1640, culture 2-7 days
Protocol: as §1, §2, §3

Terchoderma = test: as above; conditions: Trichoderma, RPMI 1640, culture 2-7 days
Protocol: as §1, §2, §3

C. neoformans = test: as above; conditions: Cryptococcus neoformans, RPMI 1640, culture 2-7 days
Protocol: as §1, §2, §3

C. parapsilosis = test: as above; conditions: Lodderomyces parapsilosis, RPMI 1640, culture 2-7 days
Protocol: as §1, §2, §3

Setosphaeria turcica = test: as above; conditions: Exserohilum turcicum, RPMI 1640, culture 2-7 days
Protocol: as §1, §2, §3

[1] = test system: Fusarium oxysporum vasinfectum; test: as above; conditions: RPMI 1640, culture 2-7 days
Protocol: as §1, §2, §3

S. schenekn = test: as above; conditions: RPMI 1640, culture 2-7 days
Protocol: as §1, §2, §3

A375 = test: In vitro anticancer MTT experiment; conditions: Homo sapiens, A-375, concentration 5 ug/ml, 48 h or 72 h, read-out: inhibition ratio A375
Protocol: (§4) In vitro anticancer experiments of 25 compounds as anti-bacterial and anti-cancer compounds in the patent were tested. In the test, 14 kinds of cancer cells were used as tested cancer cells. And the results obtained by MTT method were shown in table 2 (the inhibition ratio was obtained when the concentration was 5 ug/ml). Tested Cancer Cells: SGC7901, HTB-38HT-29, CRL-2233NU-398, CRL-1469PANC-1, B0192, HTB-131MDA-453, CRL-1435PC-3, FTC133, AS24391, HTB-95637. (Cancer cells were from Chinese Military Academy of Medical Sciences). Cells Culture: Culture solution was composed of RPMI 1640 medium, 10% (VAT) Fetal calf serum and 0.01% L-glutamine. Cultured cells were maintained at 37° C. in an incubator with 5% CO2. The cells at logarithmic growth phase were used in the experiment. MTT Experiment: Single cell suspension was obtained by digesting cells with 0.25% trypsin. The cells at logarithmic growth phase were collected and seeded in a 96-well plate at a concentration of 6000-7000 cells per well. After culturing for 12 h at 37° C. in the incubator with 5% CO2, the cells were again incubated with the tested compounds of various concentrations for 48 h or 72 h. Pure cultures and cells without drug were taken as blank reference and negative reference, and 8 Wells of each group were taken. Twenty microliter of MTT (5 mg/mL) was added to each well, and the mixed solutions were incubation for 4 h. The formazan product was dissolved by dimethyl sulfoxide (DMSO, 150 μL), and the optical density (O.D.) was read at 570 nm. The Inhibition Ratio was calculated by the following formula: Inhibition Ratio=(Anegative control−Asample)/(Anegative control−Ablank control)

HTB-131MDA-MB-453 = test: In vitro anticancer MTT experiment; conditions: concentration 5 ug/ml, 48 h or 72 h, read-out: inhibition ratio HTB-131MDA-MB-453
Protocol: as §4

CRL-1435PC-3 = test: In vitro anticancer MTT experiment; conditions: concentration 5 ug/ml, 48 h or 72 h, read-out: inhibition ratio CRL-1435PC-3
Protocol: as §4

CRL-1469PANC-1 = test: In vitro anticancer MTT experiment; conditions: concentration 5 ug/ml, 48 h or 72 h, read-out: inhibition ratio CRL-1469PANC-1
Protocol: as §4

L1210 = test: In vitro anticancer MTT experiment; conditions: Mus musculus, concentration 5 ug/ml, 48 h or 72 h, read-out: inhibition ratio L1210
Protocol: as §4

HTB-95637 = test: In vitro anticancer MTT experiment; conditions: concentration 5 ug/ml, 48 h or 72 h, read-out: inhibition ratio HTB-95637
Protocol: as §4

B01092 = test: In vitro anticancer MTT experiment; conditions: concentration 5 ug/ml, 48 h or 72 h, read-out: inhibition ratio B01092
Protocol: as §4

HTB-38HT-29 = test: In vitro anticancer MTT experiment; conditions: concentration 5 ug/ml, 48 h or 72 h, read-out: inhibition ratio HTB-38HT-29
Protocol: as §4

L428 = test: In vitro anticancer MTT experiment; conditions: Homo sapiens, L-428, concentration 5 ug/ml, 48 h or 72 h, read-out: inhibition ratio L428
Protocol: as §4

HTB-94 = test: In vitro anticancer MTT experiment; conditions: concentration 5 ug/ml, 48 h or 72 h, read-out: inhibition ratio HTB-94
Protocol: as §4

AS24391 = test: In vitro anticancer MTT experiment; conditions: concentration 5 ug/ml, 48 h or 72 h, read-out: inhibition ratio AS24391
Protocol: as §4

SGC7901 = test: In vitro anticancer MTT experiment; conditions: Homo sapiens, SGC-7901, concentration 5 ug/ml, 48 h or 72 h, read-out: inhibition ratio SGC7901
Protocol: as §4

CRL-2233SNU-398 = test: In vitro anticancer MTT experiment; conditions: concentration 5 ug/ml, 48 h or 72 h, read-out: inhibition ratio CRL-2233SNU-398
Protocol: as §4

FTC 133 = test: In vitro anticancer MTT experiment; conditions: Homo sapiens, concentration 5 ug/ml, 48 h or 72 h, read-out: inhibition ratio FTC 133
Protocol: as §4

gibberella = test: In vitro antibacterial (antifungal) test, two-fold dilution MIC; conditions: RPMI 1640, culture 2-7 days
Protocol: as §1, §2, §3

SMILES	MIC (C. albicans) [mg/L]	MIC (E. floccosum) [mg/L]	MIC (C. glabrata) [mg/L]	MIC (M. gypseum) [mg/L]	MIC (C. tropicalis) [mg/L]	MIC (Terchoderma) [mg/L]	MIC (C. neoformans) [mg/L]	MIC (C. parapsilosis) [mg/L]	MIC (Setosphaeria turcica) [mg/L]	MIC [1] [mg/L]	MIC (S. schenekn) [mg/L]	inhibition at 5 µg/mL (A375) [%]	inhibition at 5 µg/mL (CRL-1469PANC-1) [%]	inhibition at 5 µg/mL (L1210) [%]	inhibition at 5 µg/mL (B01092) [%]	inhibition at 5 µg/mL (L428) [%]	inhibition at 5 µg/mL (HTB-94) [%]	inhibition at 5 µg/mL (AS24391) [%]	inhibition at 5 µg/mL (SGC7901) [%]	inhibition at 5 µg/mL (FTC 133) [%]	also measured
Cc1ccc2c(c1)C(=O)/C(=C/Br)CS2 [Compound 8, (Z)-3-(bromomethylene)-6-methylthiochroman-4-one]	32 (≈ 119 µM)	64 (≈ 238 µM)	64 (≈ 238 µM)	64 (≈ 238 µM)	64 (≈ 238 µM)	32 (≈ 119 µM)	8 (≈ 29.7 µM)	32 (≈ 119 µM)	64 (≈ 238 µM)	64 (≈ 238 µM)	32 (≈ 119 µM)	37.9	47.9	84.6	39	44.2	56.7	40	60.6	75.6	MIC (C. Krusei): 64 mg/L (≈ 238 µM); inhibition at 5 µg/mL (HTB-131MDA-MB-453): 47.3%; inhibition at 5 µg/mL (CRL-1435PC-3): 50.6%; inhibition at 5 µg/mL (HTB-95637): 56.4%; inhibition at 5 µg/mL (HTB-38HT-29): 54.9%; inhibition at 5 µg/mL (CRL-2233SNU-398): 46.4%
O=C1/C(=C/Cl)SCc2ccc(F)cc21 [Compound 15, (Z)-3-(chloromethylene)-6-fluoroisothiochroman-4-one]	8 (≈ 35 µM)	8 (≈ 35 µM)	4 (≈ 17.5 µM)	4 (≈ 17.5 µM)	4 (≈ 17.5 µM)	32 (≈ 140 µM)	32 (≈ 140 µM)	16 (≈ 70 µM)	16 (≈ 70 µM)	8 (≈ 35 µM)	32 (≈ 140 µM)	60.2	36.8	80.9	49.5	55.4	60.5	46.8	47.6	45.9	MIC (C. Krusei): 32 mg/L (≈ 140 µM); MIC (gibberella): 16 mg/L (≈ 70 µM); inhibition at 5 µg/mL (HTB-131MDA-MB-453): 58%; inhibition at 5 µg/mL (HTB-38HT-29): 57%; inhibition at 5 µg/mL (CRL-2233SNU-398): 45%
O=C1/C(=C/Cl)CSc2sccc21 [Compound 19, (Z)-5-(chloromethylene)-5,6-dihydro-4H-thieno[2,3-b]thiopyran-4-one]	8 (≈ 36.9 µM)	4 (≈ 18.5 µM)	32 (≈ 148 µM)	16 (≈ 73.8 µM)	16 (≈ 73.8 µM)	4 (≈ 18.5 µM)	16 (≈ 73.8 µM)	4 (≈ 18.5 µM)	32 (≈ 148 µM)	16 (≈ 73.8 µM)	32 (≈ 148 µM)	46.2	67.9	76.4	36.5	47.5	48.5	53	56.4	54.8	MIC (gibberella): 8 mg/L (≈ 36.9 µM); inhibition at 5 µg/mL (HTB-131MDA-MB-453): 47.9%; inhibition at 5 µg/mL (CRL-1435PC-3): 41.3%
O=C1/C(=C\Cl)SCc2ccccc21 [Compound 26, (E)-3-(chloromethylene)isothiochroman-4-one]	2 (≈ 9.49 µM)	4 (≈ 19 µM)	16 (≈ 75.9 µM)	16 (≈ 75.9 µM)	8 (≈ 38 µM)	8 (≈ 38 µM)	4 (≈ 19 µM)	32 (≈ 152 µM)	2 (≈ 9.49 µM)	4 (≈ 19 µM)	8 (≈ 38 µM)	–	–	–	–	–	–	–	–	–	MIC (C. Krusei): 8 mg/L (≈ 38 µM); MIC (gibberella): 16 mg/L (≈ 75.9 µM)
Cc1ccc(SC2/C(=C/Cl)CSc3ccc(C)cc32)cc1 (centres unmarked) [Compound 29, (E)-3-(chloromethylene)-6-methyl-4-(p-tolylthio)thiochroman]	–	64 (≈ 192 µM)	–	64 (≈ 192 µM)	–	64 (≈ 192 µM)	–	32 (≈ 96.1 µM)	–	–	32 (≈ 96.1 µM)	30.2	17.4	33.6	26.5	13.2	23.4	15.2	23.3	32.2	MIC (gibberella): 16 mg/L (≈ 48.1 µM); inhibition at 5 µg/mL (HTB-38HT-29): 19.2%; inhibition at 5 µg/mL (CRL-2233SNU-398): 21.5%
